Test results from patent US20230091047A1 (priority 2019, published 2023).

Assays:
in vitro = format: cell-based; settings: human, HepG2 or HepG2.117 cells, ATPlite, 3-days incubation (not marked with *), mean value
In short: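 Luminescent ATP quantitation served as the viability endpoint following a 3- or 4-day incubation with test compounds.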

[1] = test system: HBV (HepG2.117 cell line, inducibly HBV producing); experiment: Anti-HBV activity: intracellular HBV DNA by real-time PCR in HepG2.117 cells after 3 days of treatment; format: cell-based, hepatitis B virus; settings: Hepatitis B virus, HepG2.117, 72 h, HepG2.117 cells, intracellular HBV DNA by real-time PCR, 3 days of treatment, mean value; read-out: EC50 (μM, mean value)
In short: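 Tet-off HepG2.117; HBV replication induced (no doxycycline); serial compound dilutions, 3 d; intracellular HBV DNA by real-time PCR, HBV-specific primers/probe.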

In the case of `CNC(=O)c1ccc(-n2c(NC(C)C)nc3c(c2=O)C[C@@H](C)N(C(=O)c2ccc(OC(F)F)c(Br)c2)C3)cc1` [Compound C571], the CC50 at 3 days (in vitro) is reported as > 50 µM and the EC50 [1] is reported as 0.09 µM.
`CNC(=O)c1ccc(-n2c(NC(C)C)nc3c(c2=O)C[C@@H](C)N(C(=O)c2cc4c(Br)c(F)ccc4[nH]2)C3)cc1` [Compound C572] showed a CC50 at 3 days (in vitro) of 14.6 µM and an EC50 [1] of 0.01 µM.
With `CNC(=O)c1ccc(-n2c(NC(C)C)nc3c(c2=O)C[C@@H](C)N(C(=O)c2ccc(C(C)(F)F)cc2)C3)cc1` [Compound C573] the CC50 at 3 days (in vitro) was > 50 µM and the EC50 [1] was 0.32 µM.
For `CNC(=O)c1ccc(-n2c(NC(C)C)nc3c(c2=O)C[C@@H](C)N(C(=O)c2cc(F)c(Br)cc2F)C3)cc1` [Compound C574], the CC50 at 3 days (in vitro) was > 50 µM and the EC50 [1] was 0.73 µM.
In the case of `CNC(=O)c1ccc(-n2c(NC(C)C)nc3c(c2=O)C[C@@H](C)N(C(=O)c2ccc(Br)c(OC(C)C)c2)C3)cc1` [Compound C575], the CC50 at 3 days (in vitro) is reported as > 50 µM and the EC50 [1] is reported as 0.55 µM.
With `CNC(=O)c1ccc(-n2c(NC(C)C)nc3c(c2=O)C[C@@H](C)N(C(=O)c2cc4c(Br)cc(Cl)cc4[nH]2)C3)cc1` [Compound C576] the CC50 at 3 days (in vitro) was > 50 µM and the EC50 [1] was 0.05 µM.
For `CNC(=O)c1ccc(-n2c(NC(C)C)nc3c(c2=O)C[C@@H](C)N(C(=O)c2cc(Cl)c(Br)cc2F)C3)cc1` [Compound C577], the CC50 at 3 days (in vitro) was > 50 µM and the EC50 [1] was 0.17 µM.
`CNC(=O)c1ccc(-n2c(NC(C)C)nc3c(c2=O)C[C@@H](C)N(C(=O)c2cc(C)c(C)c(Br)c2)C3)cc1` [Compound C578] showed a CC50 at 3 days (in vitro) of 33.2 µM and an EC50 [1] of 0.11 µM.
In the case of `CNC(=O)c1ccc(-n2c(NC(C)C)nc3c(c2=O)C[C@@H](C)N(C(=O)c2cc4cc(Cl)ccc4s2)C3)cc1` [Compound C579], the CC50 at 3 days (in vitro) is reported as > 50 µM and the EC50 [1] is reported as 0.12 µM.
In the case of `CNC(=O)c1ccc(-n2c(NC(C)C)nc3c(c2=O)C[C@@H](C)N(C(=O)c2ccc(Br)c(Cl)c2F)C3)cc1` [Compound C580], the CC50 at 3 days (in vitro) is reported as > 50 µM and the EC50 [1] is reported as 0.08 µM.
For `CNC(=O)c1ccc(-n2c(NC(C)C)nc3c(c2=O)C[C@@H](C)N(C(=O)c2ccc(Br)c(F)c2C)C3)cc1` [Compound C581], the CC50 at 3 days (in vitro) was > 50 µM and the EC50 [1] was 0.15 µM.
For `CNC(=O)c1ccc(-n2c(NC(C)C)nc3c(c2=O)C[C@@H](C)N(C(=O)c2ccc(Cl)cc2Cl)C3)cc1` [Compound C582], the CC50 at 3 days (in vitro) was > 50 µM and the EC50 [1] was 2.34 µM.
With `CNC(=O)c1ccc(-n2c(NC(C)C)nc3c(c2=O)C[C@@H](C)N(C(=O)c2cc4cc(Br)ccc4s2)C3)cc1` [Compound C583] the CC50 at 3 days (in vitro) was > 50 µM and the EC50 [1] was 0.21 µM.
In the case of `CNC(=O)c1ccc(-n2c(NC(C)C)nc3c(c2=O)C[C@@H](C)N(C(=O)c2ccc(Br)c(C)c2F)C3)cc1` [Compound C584], the CC50 at 3 days (in vitro) is reported as > 50 µM and the EC50 [1] is reported as 0.1 µM.
For `CNC(=O)c1ccc(-n2c(NC(C)C)nc3c(c2=O)C[C@@H](C)N(C(=O)c2ccc(C)c(C(F)(F)F)c2)C3)cc1` [Compound C585], the CC50 at 3 days (in vitro) was > 50 µM and the EC50 [1] was 0.1 µM.
For `CNC(=O)c1ccc(-n2c(NC(C)C)nc3c(c2=O)C[C@@H](C)N(C(=O)c2ccc(C)c(Br)c2)C3)cc1` [Compound C586], the CC50 at 3 days (in vitro) was > 50 µM and the EC50 [1] was 0.21 µM.
Compound `CNC(=O)c1ccc(-n2c(NC(C)C)nc3c(c2=O)C[C@@H](C)N(C(=O)c2cc4c(OC(F)(F)F)cccc4[nH]2)C3)cc1` [Compound C587] has a CC50 at 3 days (in vitro) of 9.2 µM and an EC50 [1] of 0.09 µM.
With `CNC(=O)c1ccc(-n2c(NC(C)C)nc3c(c2=O)C[C@@H](C)N(C(=O)c2ccc(Br)c4c2OCCC4)C3)cc1` [Compound C588] the CC50 at 3 days (in vitro) was > 50 µM and the EC50 [1] was 1.61 µM.
With `CNC(=O)c1ccc(-n2c(NC(C)C)nc3c(c2=O)C[C@@H](C)N(C(=O)c2ccc(Br)c(C)c2)C3)cc1` [Compound C589] the CC50 at 3 days (in vitro) was > 50 µM and the EC50 [1] was 0.04 µM.
With `CNC(=O)c1ccc(-n2c(NC(C)C)nc3c(c2=O)C[C@@H](C)N(C(=O)c2cc(Cl)c(Cl)cc2OC)C3)cc1` [Compound C590] the CC50 at 3 days (in vitro) was > 50 µM and the EC50 [1] was 12.4 µM.
Work on `CNC(=O)c1ccc(-n2c(NC(C)C)nc3c(c2=O)C[C@@H](C)N(C(=O)c2cc4sc(Br)cc4[nH]2)C3)cc1` [Compound C591] yielded a CC50 at 3 days (in vitro) of 23.2 µM and an EC50 [1] of 0.01 µM.
